Data from patent US8513251B2, “Pyridazinone compounds” (Takeda Pharmaceutical Company Limited, priority 2009, dated 2013).

| Structure (SMILES) | melting point |
| --- | --- |
| Cc1ccc(-n2nccc2-c2nn(-c3cccc(C(F)(F)F)c3)ccc2=O)cc1 [Example 1, 3-[1-(4-Methylphenyl)-1H-pyrazol-5-yl]-1-[3-(trifluoromethyl)phenyl]pyridazin-4(1H)-one] | 164 to 165 °C |
| O=c1ccn(-c2cccc(C(F)(F)F)c2)nc1-c1ccnn1-c1ccc(F)cc1 [Example 2, 3-[1-(4-Fluorophenyl)-1H-pyrazol-5-yl]-1-[3-(trifluoromethyl)phenyl]pyridazin-4(1H)-one] | 130 to 131 °C |
| COc1ccc(-n2nccc2-c2nn(-c3cccc(C(F)(F)F)c3)ccc2=O)cc1 [Example 4, 3-[1-(4-Methoxyphenyl)-1H-pyrazol-5-yl]-1-[3-(trifluoromethyl)phenyl]pyridazin-4(1H)-one] | 173 to 174 °C |
| Cc1cccc(-n2nccc2-c2nn(-c3cccc(C(F)(F)F)c3)ccc2=O)c1 [Example 5, 3-[1-(3-Methylphenyl)-1H-pyrazol-5-yl]-1-[3-(trifluoromethyl)phenyl]pyridazin-4(1H)-one] | 142 to 143 °C |
| O=c1ccn(-c2cccc(C(F)(F)F)c2)nc1-c1ccnn1-c1cccc(F)c1 [Example 6, 3-[1-(3-Fluorophenyl)-1H-pyrazol-5-yl]-1-[3-(trifluoromethyl)phenyl]pyridazin-4(1H)-one] | 104 to 105 °C |
| Cc1ccccc1-n1nccc1-c1nn(-c2cccc(C(F)(F)F)c2)ccc1=O [Example 7, 3-[1-(2-Methylphenyl)-1H-pyrazol-5-yl]-1-[3-(trifluoromethyl)phenyl]pyridazin-4(1H)-one] | 126 to 127 °C |
| O=c1ccn(-c2cccc(C(F)(F)F)c2)nc1-c1ccnn1-c1ccccc1Cl [Example 8, 3-[1-(2-Chlorophenyl)-1H-pyrazol-5-yl]-1-[3-(trifluoromethyl)phenyl]pyridazin-4(1H)-one] | 139 to 140 °C |
| COc1ccccc1-n1nccc1-c1nn(-c2cccc(C(F)(F)F)c2)ccc1=O [Example 9, 3-[1-(2-Methoxyphenyl)-1H-pyrazol-5-yl]-1-[3-(trifluoromethyl)phenyl]pyridazin-4(1H)-one] | 146 to 147 °C |
| O=c1ccn(-c2ccc(C(F)(F)F)cc2)nc1-c1ccnn1-c1ccccc1 [Example 11, 3-(1-Phenyl-1H-pyrazol-5-yl)-1-[4-(trifluoromethyl)phenyl]pyridazin-4(1H)-one] | 237 to 238 °C |
| O=c1ccn(-c2cccc(Cl)c2)nc1-c1ccnn1-c1ccccc1 [Example 12, 1-(3-Chlorophenyl)-3-(1-phenyl-1H-pyrazol-5-yl)pyridazin-4(1H)-one] | 146 to 147 °C |
| COc1ccc(-n2ccc(=O)c(-c3ccnn3-c3ccccc3)n2)cc1 [Example 14, 1-(4-Methoxyphenyl)-3-(1-phenyl-1H-pyrazol-5-yl)pyridazin-4(1H)-one] | 179 to 180 °C |
| O=c1ccn(-c2ccc(Cl)cc2)nc1-c1ccnn1-c1ccccc1 [Example 18, 1-(4-Chlorophenyl)-3-(1-phenyl-1H-pyrazol-5-yl)pyridazin-4(1H)-one] | 219 to 220 °C |
| Cc1ccccc1-n1ccc(=O)c(-c2ccnn2-c2ccccc2)n1 [Example 19, 1-(2-Methylphenyl)-3-(1-phenyl-1H-pyrazol-5-yl)pyridazin-4(1H)-one] | 120 to 121 °C |
| Cc1cccc(-n2ccc(=O)c(-c3ccnn3-c3ccccc3)n2)c1 [Example 20, 1-(3-Methylphenyl)-3-(1-phenyl-1H-pyrazol-5-yl)pyridazin-4(1H)-one] | 115 to 116 °C |
| COc1cccc(-n2ccc(=O)c(-c3ccnn3-c3ccccc3)n2)c1 [Example 21, 1-(3-Methoxyphenyl)-3-(1-phenyl-1H-pyrazol-5-yl)pyridazin-4(1H)-one] | 110 to 111 °C |
| O=c1ccn(-c2ccccc2C(F)(F)F)nc1-c1ccnn1-c1ccccc1 [Example 22, 3-(1-Phenyl-1H-pyrazol-5-yl)-1-[2-(trifluoromethyl)phenyl]pyridazin-4(1H)-one] | 145 to 146 °C |
| O=c1ccn(-c2ccccc2)nc1-c1ccnn1-c1ccccc1 [Example 24, 1-Phenyl-3-(1-phenyl-1H-pyrazol-5-yl)pyridazin-4(1H)-one] | 179 to 180 °C |
| Cc1ccc(-n2ccc(=O)c(-c3ccnn3-c3ccccc3)n2)cc1 [Example 25, 1-(4-Methylphenyl)-3-(1-phenyl-1H-pyrazol-5-yl)pyridazin-4(1H)-one] | 182 to 183 °C |
| O=c1ccn(-c2cccc(OC(F)F)c2)nc1-c1ccnn1-c1ccccc1 [Example 27, 1-[3-(Difluoromethoxy)phenyl]-3-(1-phenyl-1H-pyrazol-5-yl)pyridazin-4(1H)-one] | 159 to 160 °C |
| O=c1ccn(-c2ccc(OC(F)F)cc2)nc1-c1ccnn1-c1ccccc1 [Example 28, 1-[4-(Difluoromethoxy)phenyl]-3-(1-phenyl-1H-pyrazol-5-yl)pyridazin-4(1H)-one] | 175 to 176 °C |

| Structure (SMILES) | melting point |
| --- | --- |
| O=c1ccn(-c2ccccc2N2CCOCC2)nc1-c1ccnn1-c1ccccc1 [Example 29, 1-(2-Morpholin-4-ylphenyl)-3-(1-phenyl-1H-pyrazol-5-yl)pyridazin-4(1H)-one] | 200 to 201 °C |
| O=c1ccn(-c2cccc(C(F)(F)F)c2)nc1-c1nncn1-c1ccccc1 [Example 40, 3-(4-Phenyl-4H-1,2,4-triazol-3-yl)-1-[3-(trifluoromethyl)phenyl]pyridazin-4(1H)-one] | 103 to 104 °C |
| Cc1nnc(-c2nn(-c3cccc(C(F)(F)F)c3)ccc2=O)n1-c1ccccc1 [Example 41, 3-(5-Methyl-4-phenyl-4H-1,2,4-triazol-3-yl)-1-[3-(trifluoromethyl)phenyl]pyridazin-4(1H)-one] | 191 to 192 °C |
| Cc1cn(-c2cccc(C(F)(F)F)c2)nc(-c2ccnn2-c2ccccc2)c1=O [Example 50, 5-Methyl-3-(1-phenyl-1H-pyrazol-5-yl)-1-[3-(trifluoromethyl)phenyl]pyridazin-4(1H)-one] | 147 to 150 °C |
| Cc1cc(-c2nn(-c3cccc(C(F)(F)F)c3)ccc2=O)n(-c2ccccc2)n1 [Example 51, 3-(3-Methyl-1-phenyl-1H-pyrazol-5-yl)-1-[3-(trifluoromethyl)phenyl]pyridazin-4(1H)-one] | 167 to 168 °C |
| COc1cn(-c2ccc(I)cc2F)nc(-c2ccnn2-c2ccccc2)c1=O [Example 55, 1-(2-Fluoro-4-iodophenyl)-5-methoxy-3-(1-phenyl-1H-pyrazol-5-yl)pyridazin-4(1H)-one] | 194 to 196 °C |
| COc1cn(-c2ccc(C(F)(F)F)cc2F)nc(-c2ccnn2-c2ccccc2)c1=O [Example 56, 1-[2-Fluoro-4-(trifluoromethyl)phenyl]-5-methoxy-3-(1-phenyl-1H-pyrazol-5-yl)pyridazin-4(1H)-one] | 169 to 171 °C |
| O=c1c(O)cn(-c2cccc(C(F)(F)F)c2)nc1-c1ccnn1-c1ccccc1 [Example 58, 5-Hydroxy-3-(1-phenyl-1H-pyrazol-5-yl)-1-[3-(trifluoromethyl)phenyl]pyridazin-4(1H)-one] | 246 to 248 °C |
| CC(C)Oc1cn(-c2cccc(C(F)(F)F)c2)nc(-c2ccnn2-c2ccccc2)c1=O [Example 60, 5-(1-Methylethoxy)-3-(1-phenyl-1H-pyrazol-5-yl)-1-[3-(trifluoromethyl)phenyl]pyridazin-4(1H)-one] | 137 to 139 °C |
| O=c1c(OCC2CC2)cn(-c2cccc(C(F)(F)F)c2)nc1-c1ccnn1-c1ccccc1 [Example 61, 5-(Cyclopropylmethoxy)-3-(1-phenyl-1H-pyrazol-5-yl)-1-[3-(trifluoromethyl)phenyl]pyridazin-4(1H)-one] | 72 to 78 °C |
| COCc1cn(-c2cccc(C(F)(F)F)c2)nc(-c2ccnn2-c2ccccc2)c1=O [Example 66, 5-(Methoxymethyl)-3-(1-phenyl-1H-Pyrazol-5-yl)-1-[3-(trifluoromethyl)phenyl]pyridazin-4(1H)-one] | 137 to 139 °C |
| O=c1c(Br)cn(-c2cccc(C(F)(F)F)c2)nc1-c1ccnn1-c1ccccc1 [Example 67, 5-Bromo-3-(1-phenyl-1H-pyrazol-5-yl)-1-[3-(trifluoromethyl)phenyl]pyridazin-4(1H)-one] | 145 to 146 °C |
| COc1cn(-c2ccc(OCc3ccccc3)cc2F)nc(-c2ccnn2-c2ccccc2)c1=O [Example 68, 1-[4-(Benzyloxy)-2-fluorophenyl]-5-methoxy-3-(1-phenyl-1H-pyrazol-5-yl)pyridazin-4(1H)-one] | 181 to 183 °C |
| O=c1cc(O)n(-c2cccc(C(F)(F)F)c2)nc1-c1ccnn1-c1ccccc1 [Example 69, 6-Hydroxy-3-(1-phenyl-1H-pyrazol-5-yl)-1-[3-(trifluoromethyl)phenyl]pyridazin-4(1H)-one] | 241 to 243 °C |
| O=c1ccn(-c2cccc(C(F)(F)F)c2)nc1-c1cc(C(F)(F)F)nn1-c1ccccc1 [Example 70, 3-[1-Phenyl-3-(trifluoromethyl)-1H-pyrazol-5-yl]-1-[3-(trifluoromethyl)phenyl]pyridazin-4(1H)-one] | 190 to 191 °C |
| Cc1cnn(-c2ccccc2)c1-c1nn(-c2cccc(C(F)(F)F)c2)ccc1=O [Example 71, 3-(4-Methyl-1-phenyl-1H-pyrazol-5-yl)-1-[3-(trifluoromethyl)phenyl]pyridazin-4(1H)-one] | 208 to 211 °C |
| O=c1ccn(-c2cccc(C(F)(F)F)c2)nc1-c1cn(C(c2ccccc2)(c2ccccc2)c2ccccc2)nc1-c1ccccc1 [Example 73, 3-(3-Phenyl-1-trityl-1H-pyrazol-4-yl)-1-[3-(trifluoromethyl)phenyl]pyridazin-4(1H)-one] | 216 to 218 °C |
| O=c1ccn(-c2cccc(C(F)(F)F)c2)nc1-c1c[nH]nc1-c1ccccc1 [Example 74, 3-(3-Phenyl-1H-pyrazol-4-yl)-1-[3-(trifluoromethyl)phenyl]pyridazin-4(1H)-one] | 206 to 208 °C |
| Cn1ncc(-c2nn(-c3cccc(C(F)(F)F)c3)ccc2=O)c1-c1ccccc1 [Example 75, 3-(1-Methyl-5-phenyl-1H-pyrazol-4-yl)-1-[3-(trifluoromethyl)phenyl]pyridazin-4(1H)-one] | 193 to 195 °C |
